Measured values: PubChem BioAssay (NCI)
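The compound was tested at five concentrations on cells cultured in 96-well plates, with a 48-hour exposure period. TGI is the concentration that stops growth completely.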

Assays:
Assay in all cases: inhibition of tumour cell growth, NCI panel, 48 h
A549 NSCLC = tested on: A549 NSCLC
OVCAR-5 ovarian = tested on: OVCAR-5 ovarian
UACC-62 melanoma = tested on: UACC-62 melanoma
HT29 colon = tested on: HT29 colon
SNB-75 CNS = tested on: SNB-75 CNS
ACHN renal = tested on: ACHN renal
HL-60(TB) leukemia = tested on: HL-60(TB) leukemia
CCRF-CEM leukemia = tested on: CCRF-CEM leukemia
SN12C renal = tested on: SN12C renal
786-0 renal = tested on: 786-0 renal
OVCAR-3 ovarian = tested on: OVCAR-3 ovarian
DU-145 prostate = tested on: DU-145 prostate
BT-549 breast = tested on: BT-549 breast
SK-MEL-2 melanoma = tested on: SK-MEL-2 melanoma
MALME-3M melanoma = tested on: MALME-3M melanoma
U251 CNS = tested on: U251 CNS
HCT-116 colon = tested on: HCT-116 colon
SK-MEL-28 melanoma = tested on: SK-MEL-28 melanoma
OVCAR-8 ovarian = tested on: OVCAR-8 ovarian
CAKI-1 renal = tested on: CAKI-1 renal
K-562 leukemia = tested on: K-562 leukemia
HS 578T breast = tested on: HS 578T breast
TK-10 renal = tested on: TK-10 renal
COLO 205 colon = tested on: COLO 205 colon
SF-268 CNS = tested on: SF-268 CNS
HOP-92 NSCLC = tested on: HOP-92 NSCLC
MDA-N = tested on: MDA-N
A498 renal = tested on: A498 renal
M14 melanoma = tested on: M14 melanoma
RPMI-8226 leukemia = tested on: RPMI-8226 leukemia
NCI-H522 lung = tested on: NCI-H522 lung
PC-3 prostate = tested on: PC-3 prostate
EKVX NSCLC = tested on: EKVX NSCLC
MCF7 breast = tested on: MCF7 breast
SF-295 CNS = tested on: SF-295 CNS
NCI-H23 lung = tested on: NCI-H23 lung
LOX IMVI melanoma = tested on: LOX IMVI melanoma
SK-OV-3 ovarian = tested on: SK-OV-3 ovarian
MDA-MB-435 = tested on: MDA-MB-435
SNB-19 CNS = tested on: SNB-19 CNS
OVCAR-4 ovarian = tested on: OVCAR-4 ovarian
RXF 393 renal = tested on: RXF 393 renal
SK-MEL-5 melanoma = tested on: SK-MEL-5 melanoma
MOLT-4 leukemia = tested on: MOLT-4 leukemia
UACC-257 melanoma = tested on: UACC-257 melanoma
NCI/ADR-RES ovarian = tested on: NCI/ADR-RES ovarian
HOP-62 NSCLC = tested on: HOP-62 NSCLC
HCC-2998 colon = tested on: HCC-2998 colon
SW-620 colon = tested on: SW-620 colon
MDA-MB-231 breast = tested on: MDA-MB-231 breast
KM12 colon = tested on: KM12 colon
HCT-15 colon = tested on: HCT-15 colon
IGROV1 ovarian = tested on: IGROV1 ovarian
T-47D breast = tested on: T-47D breast
NCI-H460 lung = tested on: NCI-H460 lung
UO-31 renal = tested on: UO-31 renal
NCI-H226 lung = tested on: NCI-H226 lung
SF-539 CNS = tested on: SF-539 CNS
SR leukemia = tested on: SR leukemia

## COc1cc(/C=C2\N=C(c3ccccc3)N(c3ccc(C(=O)c4ccccc4)cc3N3C(=O)/C(=C/c4cc(OC)c(OC)c(OC)c4)N=C3c3ccccc3)C2=O)cc(OC)c1OC
A549 NSCLC
  TGI: 71.6 µM
OVCAR-5 ovarian
  TGI: > 100 µM
UACC-62 melanoma
  TGI: 24.7 µM
HT29 colon
  TGI: 92 µM
SNB-75 CNS
  TGI: 35.6 µM
ACHN renal
  TGI: 66 µM
HL-60(TB) leukemia
  TGI: 15.5 µM
CCRF-CEM leukemia
  TGI: 39.8 µM
SN12C renal
  TGI: 89.1 µM
786-0 renal
  TGI: > 100 µM
OVCAR-3 ovarian
  TGI: 16.6 µM
DU-145 prostate
  TGI: 40.3 µM
BT-549 breast
  TGI: 66.4 µM
SK-MEL-2 melanoma
  TGI: 25.1 µM
MALME-3M melanoma
  TGI: 41.3 µM
U251 CNS
  TGI: > 100 µM
HCT-116 colon
  TGI: 52.2 µM
SK-MEL-28 melanoma
  TGI: 65.8 µM
OVCAR-8 ovarian
  TGI: 73.2 µM
CAKI-1 renal
  TGI: > 100 µM
K-562 leukemia
  TGI: 68.7 µM
HS 578T breast
  TGI: 74.8 µM
TK-10 renal
  TGI: 42.3 µM
COLO 205 colon
  TGI: 30 µM
SF-268 CNS
  TGI: > 100 µM
HOP-92 NSCLC
  TGI: > 100 µM
MDA-N
  TGI: 14.9 µM
A498 renal
  TGI: 43 µM
M14 melanoma
  TGI: 33.4 µM
RPMI-8226 leukemia
  TGI: > 100 µM
NCI-H522 lung
  TGI: 26.1 µM
PC-3 prostate
  TGI: 46 µM
EKVX NSCLC
  TGI: 76.7 µM
MCF7 breast
  TGI: 42.1 µM
SF-295 CNS
  TGI: 55.9 µM
NCI-H23 lung
  TGI: 41.6 µM
LOX IMVI melanoma
  TGI: 39.2 µM
SK-OV-3 ovarian
  TGI: 55.4 µM
MDA-MB-435
  TGI: 18.5 µM
SNB-19 CNS
  TGI: > 100 µM
OVCAR-4 ovarian
  TGI: > 100 µM
RXF 393 renal
  TGI: 34.9 µM
SK-MEL-5 melanoma
  TGI: 21.2 µM
MOLT-4 leukemia
  TGI: 39.6 µM
UACC-257 melanoma
  TGI: 33.4 µM
NCI/ADR-RES ovarian
  TGI: 34.1 µM
HOP-62 NSCLC
  TGI: > 100 µM
HCC-2998 colon
  TGI: 11.2 µM
SW-620 colon
  TGI: 40.7 µM
MDA-MB-231 breast
  TGI: 54 µM
KM12 colon
  TGI: 48.9 µM
HCT-15 colon
  TGI: 39.2 µM
IGROV1 ovarian
  TGI: > 100 µM
T-47D breast
  TGI: 26.4 µM
NCI-H460 lung
  TGI: 23.8 µM
UO-31 renal
  TGI: 40.3 µM

## C=C(Cl)C(=C)CCC(Cl)C(C)(C)Cl (configuration not stated)
A549 NSCLC
  TGI: > 100 µM
OVCAR-5 ovarian
  TGI: > 100 µM
UACC-62 melanoma
  TGI: > 100 µM
HT29 colon
  TGI: > 100 µM
SNB-75 CNS
  TGI: > 100 µM
ACHN renal
  TGI: > 100 µM
HL-60(TB) leukemia
  TGI: > 100 µM
CCRF-CEM leukemia
  TGI: > 100 µM
NCI-H226 lung
  TGI: > 100 µM
SN12C renal
  TGI: > 100 µM
786-0 renal
  TGI: > 100 µM
OVCAR-3 ovarian
  TGI: > 100 µM
DU-145 prostate
  TGI: > 100 µM
BT-549 breast
  TGI: > 100 µM
SK-MEL-2 melanoma
  TGI: > 100 µM
MALME-3M melanoma
  TGI: > 100 µM
U251 CNS
  TGI: > 100 µM
HCT-116 colon
  TGI: > 100 µM
SK-MEL-28 melanoma
  TGI: > 100 µM
CAKI-1 renal
  TGI: > 100 µM
K-562 leukemia
  TGI: > 100 µM
HS 578T breast
  TGI: > 100 µM
TK-10 renal
  TGI: > 100 µM
COLO 205 colon
  TGI: > 100 µM
SF-268 CNS
  TGI: > 100 µM
HOP-92 NSCLC
  TGI: > 100 µM
MDA-N
  TGI: > 100 µM
A498 renal
  TGI: > 100 µM
SF-539 CNS
  TGI: > 100 µM
M14 melanoma
  TGI: > 100 µM
RPMI-8226 leukemia
  TGI: > 100 µM
NCI-H522 lung
  TGI: > 100 µM
PC-3 prostate
  TGI: > 100 µM
EKVX NSCLC
  TGI: > 100 µM
MCF7 breast
  TGI: > 100 µM
SF-295 CNS
  TGI: > 100 µM
NCI-H23 lung
  TGI: > 100 µM
LOX IMVI melanoma
  TGI: > 100 µM
SK-OV-3 ovarian
  TGI: > 100 µM
MDA-MB-435
  TGI: > 100 µM
SNB-19 CNS
  TGI: > 100 µM
OVCAR-4 ovarian
  TGI: > 100 µM
SR leukemia
  TGI: > 100 µM
RXF 393 renal
  TGI: > 100 µM
SK-MEL-5 melanoma
  TGI: > 100 µM
MOLT-4 leukemia
  TGI: > 100 µM
UACC-257 melanoma
  TGI: > 100 µM
NCI/ADR-RES ovarian
  TGI: > 100 µM
HOP-62 NSCLC
  TGI: > 100 µM
HCC-2998 colon
  TGI: > 100 µM
SW-620 colon
  TGI: > 100 µM
MDA-MB-231 breast
  TGI: > 100 µM
KM12 colon
  TGI: > 100 µM
IGROV1 ovarian
  TGI: > 100 µM
NCI-H460 lung
  TGI: > 100 µM
UO-31 renal
  TGI: > 100 µM
